Assay results published in patent US20240415819A1, “MACROCYCLIC COMPOUNDS AS PROTEASOME SUBUNIT BETA TYPE-5 INHIBITORS” (Lead Discovery Center GmbH, priority 2021, published 2024).
pIC50: −log10 of the molar value.

How the values were obtained:
[1] = target: T1, β5 subunit of the human constitutive proteasome (CPS) (Homo sapiens, UniProt P28074); assay: β5 inhibition assay, human constitutive proteasome (Suc-LLVY-AMC); type: biochemical; conditions: IC50 class, Suc-LLVY-AMC substrate
T1 construct: purchased Boston Biochem E-360
Procedure: The enzymatic activity of the β5 subunit of the human constitutive proteasome (CPS) is analyzed. In another assay, which differs from the assay of the human constitutive proteasome only in using the human immunoproteasome (IPS) the enzymatic activity of the β5 subunit of the human immunoproteasome (IPS) is analyzed. […] Inhibition is indicated as IC50 [nM] (“-”=not measured).

[2] = target: T2, β5 subunit of the human immunoproteasome (IPS) (Homo sapiens, UniProt P28062); assay: β5 inhibition assay, human immunoproteasome (Suc-LLVY-AMC); type: biochemical; conditions: IC50 class, Suc-LLVY-AMC substrate
T2 construct: purchased Boston Biochem E-370
How it was run: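 β5 activity is read as liberated AMC fluorescence (355/460 nm) after 4 h dark reaction at RT with 22.6 μM Suc-LLVY-AMC, stopped by 1 μM bortezomib. Beforehand, 1 nM human IPS and compound sat 10 min at RT in HEPES pH 7.5 buffer containing NaCl, 0.02% SDS and DTT.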

HT-29 cells = assay: CellTiter-Glo luminescent cell viability assay with HT-29 cells (72h incubation); type: cell-based, human; conditions: Homo sapiens, HT-29, HT29 cells, read-out: CTG HT29
How it was run: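 Viability read as CellTiter-Glo luminescence after 72 h compound exposure, with 10 μM staurosporine and DMSO as control wells. Seeding 400 cells per well, compound added 24 h post-plating; IC50 from curve fitting.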

pIC50 [1] | pIC50 [2] | pIC50 (HT-29 cells) | SMILES
> 7.00 | > 7.00 | > 7.00 | Cc1ccc2cc1CNC(=O)[C@H](CCc1ccccc1)NC(=O)[C@@H](NC(=O)c1ncccn1)CC(=O)N1CCCC(CCO2)C1 (stereo partly drawn) [Compound 32, N-((9S,12S)-5^4-methyl-8,11,14-trioxo-9-phenethyl-4-oxa-7,10-diaza-1(3,1)-piperidina-5(1,3)-benzenacyclotetradecaphane-12-yl)pyrimidine-2-carboxamide]
> 7.00 | > 7.00 | > 7.00 | CC(=O)N[C@H]1CC(=O)N2CCCC(CCOc3ccc(C)c(c3)CNC(=O)C(CCC3CCN(C(C)=O)CC3)NC1=O)C2 (stereo partly drawn) [Compound 338, N-((12S)-9-(2-(1-acetylpiperidin-4-yl)ethyl)-5^4-methyl-8,11,14-trioxo-4-oxa-7,10-diaza-1(3,1)-piperidina-5(1,3)-benzenacyclotetradecaphane-12-yl)acetamide]
> 7.00 | > 7.00 | > 7.00 | Cc1ccc2cc1CNC(=O)[C@@H](CCc1ccccc1)NC(=O)[C@H](NC(=O)C(C)(C)CS)CC(=O)N1CCCC(CCO2)C1 (stereo partly drawn) [Compound 348, 3-mercapto-2,2-dimethyl-N-((9S,12S)-5^4-methyl-8,11,14-trioxo-9-phenethyl-4-oxa-7,10-diaza-1(3,1)-piperidina-5(1,3)-benzenacyclotetradecaphane-12-yl)propanamide]
> 7.00 | > 7.00 | > 7.00 | CC(=O)N[C@H]1CC(=O)N2CCCC(CCOc3ccc(C)c(c3)CNC(=O)C(CCc3nccs3)NC1=O)C2 (stereo partly drawn) [Compound 563, N-((12S)-5^4-methyl-8,11,14-trioxo-9-(2-(thiazol-2-yl)ethyl)-4-oxa-7,10-diaza-1(3,1)-piperidina-5(1,3)-benzenacyclotetradecaphane-12-yl)acetamide]
> 7.00 | > 7.00 | > 7.00 | Cc1ccc2cc1CNC(=O)[C@H](CCc1ccccc1)NC(=O)[C@@H](NC(=O)c1nc3ccccc3[nH]1)CC(=O)N1CCCC(CCO2)C1 (stereo partly drawn) [Compound 31, N-((9S,12S)-5^4-methyl-8,11,14-trioxo-9-phenethyl-4-oxa-7,10-diaza-1(3,1)-piperidina-5(1,3)-benzenacyclotetradecaphane-12-yl)-1H-benzo[d] imidazole-2-carboxamide]
> 7.00 | > 7.00 | > 7.00 | Cc1ccc2cc1CNC(=O)[C@H](CCc1ccccc1)NC(=O)[C@@H](NC(=O)Cc1nc(-c3ccncc3)n[nH]1)CC(=O)N1CCCC(CCO2)C1 (stereo partly drawn) [Compound 329, N-((9S,12S)-5^4-methyl-8,11,14-trioxo-9-phenethyl-4-oxa-7,10-diaza-1(3,1)-piperidina-5(1,3)-benzenacyclotetradecaphane-12-yl)-2-(3-(pyridin-4-yl)-1H-1,2,4-triazol-5-yl)acetamide]
6.00 to 6.30 | 6.30 to 7.00 | 6.30 to 7.00 | CC(=O)N[C@H]1CC(=O)N(C)CCCCOc2ccc(C)c(c2)CNC(=O)[C@H](CCc2ccccc2)NC1=O [Compound 296, N-(1^4,7-dimethyl-8,11,14-trioxo-13-phenethyl-2-oxa-7,12,15-triaza-1(1,3)-benzenacyclohexadecaphane-10-yl)acetamide]
> 7.00 | > 7.00 | > 7.00 | COC(=O)N(CC1NC(=O)[C@@H](NC(=O)OCc2ccccc2)CC(=O)N2CCCC(CCOc3ccc(C)c(c3)CNC1=O)C2)c1ccccc1 (stereo partly drawn) [Compound 513, methyl (((12R)-12-(((benzyloxy)carbonyl)amino)-5^4-methyl-8,11,14-trioxo-4-oxa-7,10-diaza-1(3,1)-piperidina-5(1,3)-benzenacyclotetradecaphane-9-yl)methyl)(phenyl)carbamate]
> 7.00 | > 7.00 | > 7.00 | Cc1ccc2cc1CNC(=O)[C@H](CCc1ccccc1)NC(=O)[C@@H](NC(=O)Cc1cnc(N)s1)CC(=O)N1CCCC(CCO2)C1 (stereo partly drawn) [Compound 311, 2-(2-aminothiazol-5-yl)-N-((9S,12S)-5^4-methyl-8,11,14-trioxo-9-phenethyl-4-oxa-7,10-diaza-1(3,1)-piperidina-5(1,3)-benzenacyclotetradecaphane-12-yl)acetamide]
